We go through one compound from PMC8185113, “Critical angle reflection imaging for quantification of molecular interactions on glass surface” (Nature Communications, 2021).

The target of test [1] is T1, nicotinic acetylcholine receptor (nAChR), human α4β2 receptor on SH-EP1_α4β2 cells (Homo sapiens, UniProt P17787+P43681).
T1 construct: expressed in transfected cells; host or cells: SH-EP1 cells (SH-EP1_α4β2), gift from Dr. Jie Wu
In words: acetylcholine binding to nAChR on fixed SH-EP1_α4β2 cells measured by CAR imaging. The settings on record: 61.6 degrees, average of seven cells, global fit. Here is the method: (§1) Most drugs are small molecules, and over 50% drug targets are membrane proteins.
(§2) CAR angle was set at 61.6 degrees with a sensitivity of 112 RIU^−1. The binding kinetic curves (black) were obtained by averaging the CAR response of seven cells and globally fitted to the first-order kinetics (red) (see Supplementary Figure 12b for the response of individual cells).
(§3) All the cell-related experiments including CAR, SPR, transmitted and fluorescence measurements (Figs. 4–6) were performed on an objective-based SPR microscope setup, which consisted of an inverted microscope (Olympus IX-81) and a ×60 (NA 1.49) oil-immersion objective. The light source for CAR and SPR imaging was a superluminescent light-emitting diode (SLED) (SLD-260-HP-TOW-PD-670, Superlum, Ireland) with 670 nm wavelength and 1 mW power set by a SLED current driver (PILOT4-AC, Superlum). The SLED was mounted on a translation stage (PT3, Thorlabs) with a motorized actuator (Z825B, Thorlabs) for adjusting incident angle. […] The light source for transmitted and fluorescence imaging were the stocking halogen and mercury lamp of the microscope, respectively. The excitation and emission wavelength used for imaging Alexa Fluor 488 labelled WGA were 488 nm and 518 nm, respectively, and the power density on the sample was ~0.1 mW/cm^2. A CMOS camera (ORCA-Flash 4.0, Hamamatsu) was used to record the images. […]

The next test concerns wild-type SH-EP1 cells. The test is described as follows: control: acetylcholine on wild-type SH-EP1 cells (no nAChR) measured by CAR. In kind it is binding. The settings on record: wild-type SH-EP1 cells without nAChR, 50, 100, 200 nM. As for the experimental part: as §1, §2, §3
Test [2] has as its target T1, nicotinic acetylcholine receptor (nAChR), human α4β2 receptor on SH-EP1_α4β2 cells. The test is described as follows: acetylcholine binding to nAChR on SH-EP1_α4β2 cells measured by SPR. The settings on record: SH-EP1_α4β2 cells on gold; 50, 100, 200 nM. Here is the method:
as §1, §2, §3
In general terms: Surface plasmon resonance follows binding to a sensor surface in real time, without labels.

Each structure is given as a SMILES string.

T1 sequence (P43681 29-627 limits assumed): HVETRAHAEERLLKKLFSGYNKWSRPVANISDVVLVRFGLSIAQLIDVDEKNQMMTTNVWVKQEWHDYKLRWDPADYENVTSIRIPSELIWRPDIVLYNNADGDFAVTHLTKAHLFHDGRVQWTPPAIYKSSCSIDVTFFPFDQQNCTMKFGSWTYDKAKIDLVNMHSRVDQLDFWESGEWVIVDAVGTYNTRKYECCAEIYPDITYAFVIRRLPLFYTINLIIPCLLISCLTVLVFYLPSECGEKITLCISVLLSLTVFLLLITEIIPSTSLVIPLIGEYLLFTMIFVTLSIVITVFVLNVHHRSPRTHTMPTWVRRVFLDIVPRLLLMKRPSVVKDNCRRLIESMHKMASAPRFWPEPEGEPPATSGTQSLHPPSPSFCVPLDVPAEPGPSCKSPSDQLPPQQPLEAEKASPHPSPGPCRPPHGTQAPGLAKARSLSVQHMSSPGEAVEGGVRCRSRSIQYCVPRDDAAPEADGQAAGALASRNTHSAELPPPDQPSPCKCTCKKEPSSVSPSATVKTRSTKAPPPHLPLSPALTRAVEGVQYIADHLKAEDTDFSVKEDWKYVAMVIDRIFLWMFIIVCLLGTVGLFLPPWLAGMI
T1 sequence (P17787 26-502): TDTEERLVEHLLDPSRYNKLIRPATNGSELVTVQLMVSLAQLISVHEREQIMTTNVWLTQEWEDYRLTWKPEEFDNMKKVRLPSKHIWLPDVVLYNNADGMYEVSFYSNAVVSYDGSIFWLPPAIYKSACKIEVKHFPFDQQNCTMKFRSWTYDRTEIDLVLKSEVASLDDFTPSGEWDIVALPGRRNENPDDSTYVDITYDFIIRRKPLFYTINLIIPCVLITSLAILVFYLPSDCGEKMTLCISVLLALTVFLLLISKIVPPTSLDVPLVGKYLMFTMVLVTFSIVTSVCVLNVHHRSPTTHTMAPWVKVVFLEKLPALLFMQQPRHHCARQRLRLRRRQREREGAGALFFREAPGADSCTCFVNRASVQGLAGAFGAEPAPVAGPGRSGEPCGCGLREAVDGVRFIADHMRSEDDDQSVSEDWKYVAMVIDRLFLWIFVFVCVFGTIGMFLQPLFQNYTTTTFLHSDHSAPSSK

With `CC(=O)OCC[N+](C)(C)C` [acetylcholine], the kd entry in test [1] is “(1.5±0.1)×10^-3 s^-1”. Also, the CAR response result is reported as “negligible” with wild-type SH-EP1 cells and “No clear CAR response” in the test on wild-type SH-EP1 cells (listed as Acetylcholine). Further, the SPR response entry in test [2] is “no measurable response”.
